For 13 molecules, IC50 results are on record in US20250213701A1, “MEDICAMENT FOR TREATING HUMAN TUMOR BASED ON ERF3A-TARGETING PROTEOLYSIS MECHANISM” (SUZHOU DEGEN BIO-MEDICAL CO., LTD., priority 2022, published 2025).

What all share (assay type): cell-based, human
The test system of one experiment is 22Rv1 cells. In words: Anti-proliferative toxicity against prostate cancer cell line 22Rv1 (CCK8). The following applies: Homo sapiens, 72 h, 3 days, CCK8. The procedure:
(§1) Example 82: Detection of Anti-Proliferative Toxicity Against Prostate Cancer Cell Lines Vcap, 22Rv1, and PC-3
(§2) Vcap cells (purchased from the Cell Bank of the Chinese Academy of Sciences, Cat. No. SCSP-5034) were subcultured in a culture medium (DMEM medium+1% penicillin-streptomycin dual-antibiotic solution+10% fetal bovine serum) in an incubator at 5% carbon dioxide and 37° C. 22Rv1 cells (purchased from the Cell Bank of the Chinese Academy of Sciences, Cat. No. TCHu100) were subcultured in a culture medium (RPMI-1640 medium+1% penicillin-streptomycin dual-antibiotic solution+10% fetal bovine serum) in an incubator at 5% carbon dioxide and 37° C.
22Rv1 cells were seeded at 5000 cells/well (90 μL) on a 96-well plate and cultured for 48 h.
(§3) 10 mM compound stock solutions were prepared in DMSO.
(§4) For 22Rv1 cells and PC-3 cells, the compound stock solution was diluted with DMSO to give DMSO solutions 11-19 at concentrations of 0 μM, 500 μM, 100 μM, 20 μM, 4 μM, 0.8 μM, 0.16 μM, 0.032 μM, 0.0064 μM.
For 22Rv1 cells, 2 μL of each of the above solutions 11-19 was added to 98 μL of 22Rv1 medium to give mixed solutions 30-38 of the compound and the medium.
(§5) For 22Rv1 and PC-3 cells, 10 μL of each of the above solutions 30-38 or 39-47 was added to the above cell seed solution to give a total volume of 100 μL (90 μL+10 μL), where the concentrations of the compound in wells were 0 μM, 1.0 μM, 0.2 μM, 0.04 μM, 0.008 μM, 0.0016 μM, 0.00032 μM, 0.00006 μM, and 0.00001 μM. All concentrations were in triplicate.
(§6) After the above-treated cells were cultured for 3 days, 10 μL of the CCK8 solution (DOJINDO, Cat. No. PF725) was added to each well. The plate was incubated in an incubator at 37° C. for 1-4 h and then detected on a microplate reader for the reading at 450 nm.

The test system of another experiment is PC-3 cells. In words: Anti-proliferative toxicity against prostate cancer cell line PC-3 (CCK8). The following applies: Homo sapiens, 72 h, 3 days. The procedure: as §1
PC-3 cells (purchased from the Cell Bank of the Chinese Academy of Sciences, Cat. No. SCSP-532) were subcultured in a culture medium (F12K medium+1% penicillin-streptomycin dual-antibiotic solution+10% fetal bovine serum) in an incubator at 5% carbon dioxide and 37° C.
PC-3 cells were seeded at 4000 cells/well (90 μL) on a 96-well plate and cultured for 24 h.
as §3, §4
For PC-3 cells, 2 μL of each of the above solutions 11-19 was added to 98 μL of PC-3 medium to give mixed solutions 39-47 of the compound and the medium.
as §5, §6

A further experiment deals with VCaP cells. In words: Anti-proliferative toxicity against prostate cancer cell line Vcap (CCK8). The following applies: Homo sapiens, 72 h, 3 days, CCK8. The procedure:
as §1, §2
VCap cells were seeded at 20000 cells/well (90 μL) on a 96-well plate and cultured for 72 h. The original medium was removed, and a new medium of 90 μL was added.
as §3
For VCap cells, the compound stock solution was diluted with DMSO to give DMSO solutions 1-10 at concentrations of 0 μM, 80 μM, 16 μM, 3.2 μM, 1.5 μM, 0.5 μM, 0.15 μM, 0.05 μM, 0.025 μM, and 0.0005 μM.
For Vcap cells, 2 μL of each of the above solutions 1-10 was added to 98 μL of Vcap medium to give mixed solutions 20-29 of the compound and the medium.
For Vcap cells, 10 μL of each of the above solutions 20-29 was added to the above cell seed solution to give a total volume of 100 μL (90 μL+10 μL), where the concentrations of the compound in wells were 0 μM, 0.16 μM, 0.032 μM, 0.006 μM, 0.003 μM, 0.001 μM, 0.0003 μM, 0.0001 μM, 0.00005 μM, and 0.00001 μM. All concentrations were in triplicate.
as §6

One may read the IC50 as the midpoint of a concentration-inhibition curve. Low values mean inhibition by little substance, high ones a need for much substance.

For the molecule `Cc1ccc(NC(=O)[C@H]2CC[C@H]3[C@@H]4CC[C@H]5NC(=O)C=C[C@]5(C)[C@H]4CC[C@]23C)cc1OCCCNc1cccc2c1C(=O)N(C1CCC(=O)NC1=O)C2=O` (stereo partly drawn) [C52, N-(3-((3-((4-(2-(3-(2,6-dioxopiperidine))-isoindole-1,3-dione))amino)propyl)oxy)-4-methyl-phenyl)-3-oxo-4-aza-5α-androst-1-ene-17β-carboxamide], the IC50 with 22Rv1 cells, in the experiment on PC-3 cells and in the experiment on VCaP cells was > 1000 nM throughout.
Regarding `C[C@]12C=CC(=O)N[C@@H]1CC[C@@H]1[C@@H]2CC[C@]2(C)[C@@H](C(=O)N3CCC(CN4CCN(c5ccc6c(c5)C(=O)N(C5CCC(=O)NC5=O)C6=O)CC4)CC3)CC[C@@H]12` (stereo partly drawn) [C14, 1-(5-(2-(3-(2,6-dioxopiperidine))-isoindole-1,3-dione))-4-(4-(1-(3-oxo-4-aza-5α-androst-1-ene-17β-formyl)piperidine)methyl)-piperazine], the IC50 with 22Rv1 cells, with PC-3 cells and in the experiment on VCaP cells was > 1000 nM in each case.
As to `C[C@]12C=CC(=O)N[C@@H]1CC[C@@H]1[C@@H]2CC[C@]2(C)[C@@H](C(=O)NCCNc3cccc4c3C(=O)N(C3CCC(=O)NC3=O)C4=O)CC[C@@H]12` (stereo partly drawn) [C1, N-(2-((4-(2-(3-(2,6-dioxopiperidine))-isoindole-1,3-dione))amino)ethyl)-3-oxo-4-aza-5α-androst-1-ene-17β-carboxamide], the IC50 with 22Rv1 cells, with PC-3 cells and in the experiment with VCaP cells was > 1000 nM in each case.
In the case of `C[C@]12C=CC(=O)N[C@@H]1CC[C@@H]1[C@@H]2CC[C@]2(C)[C@@H](C(=O)Nc3cccc(OCCCCCCCCNc4ccc5c(c4)C(=O)N(C4CCC(=O)NC4=O)C5=O)c3)CC[C@@H]12` (stereo partly drawn) [C40, N-(3-((8-((5-(2-(3-(2,6-dioxopiperidine))-isoindole-1,3-dione))amino)octyl)oxy)phenyl)-3-oxo-4-aza-5α-androst-1-ene-17β-carboxamide], the figures for the half-maximal inhibitory concentration (IC50) in the experiment with 22Rv1 cells, in the experiment with PC-3 cells and in the experiment with VCaP cells were > 1000 nM, > 1000 nM and 10 to 1000 nM, respectively.
Turning to `C[C@]12C=CC(=O)N[C@@H]1CC[C@@H]1[C@@H]2CC[C@]2(C)[C@@H](C(=O)Nc3cccc(OCCNc4cccc5c4C(=O)N(C4CCC(=O)NC4=O)C5=O)c3)CC[C@@H]12` (stereo partly drawn) [C27, N-(3-((2-((4-(2-(3-(2,6-dioxopiperidine))-isoindole-1,3-dione))amino)ethyl)oxy)phenyl)-3-oxo-4-aza-5α-androst-1-ene-17β-carboxamide], the IC50 is > 1000 nM in the experiment with 22Rv1 cells, > 1000 nM in the experiment on PC-3 cells and 10 to 1000 nM in the experiment with VCaP cells.
As for `[2H][C@@]1(Nc2cccc(NC(=O)[C@H]3CC[C@H]4[C@@H]5CC[C@H]6NC(=O)C=C[C@]6(C)[C@H]5CC[C@]34C)c2)CCC[C@@]([2H])(Nc2cccc3c2C(=O)N(C2CCC(=O)NC2=O)C3=O)C1` (stereo partly drawn) [C68, N-(3-(N—(N-(4-(2-(3-(2,6-dioxopiperidine))-isoindole-1,3-dione))-1,3-dideutero-1R,3R-cyclohexanediamine))phenyl)-3-oxo-4-aza-5α-androst-1-ene-17β-carboxamide], the IC50 with 22Rv1 cells was 0.1 to 10 nM; with PC-3 cells, 0.1 to 10 nM; in the experiment on VCaP cells, ≤ 0.1 nM.
As for `CC(C)(C)C(=O)OCN1C(=O)CC[C@H](N2C(=O)c3cccc(N[C@@H]4CCC[C@@H](Nc5cccc(NC(=O)[C@H]6CC[C@H]7[C@@H]8CC[C@H]9NC(=O)C=C[C@]9(C)[C@H]8CC[C@]67C)c5)C4)c3C2=O)C1=O` [C67, N-(3-(N—(N-(4-(2-(3S-(1-pivaloyloxymethyl-2,6-dioxopiperidine))-isoindole-1,3-dione))-1R,3R-cyclohexanediamine))phenyl)-3-oxo-4-aza-5α-androst-1-ene-17β-carboxamide], the IC50 is 0.1 to 10 nM in the experiment on 22Rv1 cells, 0.1 to 10 nM in the experiment on PC-3 cells and ≤ 0.1 nM in the experiment with VCaP cells.
Consider `C[C@]12C=CC(=O)N[C@@H]1CC[C@@H]1[C@@H]2CC[C@]2(C)[C@@H](C(=O)Nc3cc(OCCCNc4cccc5c4C(=O)N(C4CCC(=O)NC4=O)C5=O)ccn3)CC[C@@H]12` (stereo partly drawn) [C53, N-(2-(4-((3-((4-(2-(3-(2,6-dioxopiperidine))-isoindole-1,3-dione))amino)propyl)oxy)-pyridine))-3-oxo-4-aza-5α-androst-1-ene-17β-carboxamide], for which the IC50 with 22Rv1 cells, in the experiment on PC-3 cells and with VCaP cells was > 1000 nM each time.
Take `C[C@]12C=CC(=O)N[C@@H]1CC[C@@H]1[C@@H]2CC[C@]2(C)[C@@H](C(=O)Nc3cccc(N[C@@H]4CCC[C@@H](Nc5ccc(F)c6c5C(=O)N(C5CCC(=O)NC5=O)C6=O)C4)c3)CC[C@@H]12` (stereo partly drawn) [C78, N-(3-(N—(N-(7-fluoro-4-(2-(3-(2,6-dioxopiperidine))-isoindole-1,3-dione))-1R,3R-cyclohexanediamine))phenyl)-3-oxo-4-aza-5α-androst-1-ene-17β-carboxamide]: the IC50 in the experiment on 22Rv1 cells, with PC-3 cells and with VCaP cells was 0.1 to 10 nM throughout.
Turning to `C[C@]12C=CC(=O)N[C@@H]1CC[C@@H]1[C@@H]2CC[C@]2(C)[C@@H](C(=O)Nc3cccc(N[C@@H]4CCC[C@@H](Nc5cc(F)cc6c5C(=O)N(C5CCC(=O)NC5=O)C6=O)C4)c3)CC[C@@H]12` (stereo partly drawn) [C79, N-(3-(N—(N-(6-fluoro-4-(2-(3-(2,6-dioxopiperidine))-isoindole-1,3-dione))-1R,3R-cyclohexanediamine))phenyl)-3-oxo-4-aza-5α-androst-1-ene-17β-carboxamide], the IC50 with 22Rv1 cells, in the experiment with PC-3 cells and in the experiment with VCaP cells was 0.1 to 10 nM in each case.
For `C[C@]12C=CC(=O)N[C@@H]1CC[C@@H]1[C@@H]2CC[C@]2(C)[C@@H](C(=O)Nc3ccc(OCCCNc4cccc5c4C(=O)N(C4CCC(=O)NC4=O)C5=O)cc3)CC[C@@H]12` (stereo partly drawn) [C17, N-(4-((3-((4-(2-(3-(2,6-dioxopiperidine))-isoindole-1,3-dione))amino)propyl)oxy)phenyl)-3-oxo-4-aza-5α-androst-1-ene-17β-carboxamide], the IC50 in the experiment with 22Rv1 cells, in the experiment on PC-3 cells and with VCaP cells was > 1000 nM in each case.
`C[C@]12C=CC(=O)N[C@@H]1CC[C@@H]1[C@@H]2CC[C@]2(C)[C@@H](C(=O)Nc3ccc(OCCCCCCCNc4cccc5c4C(=O)N(C4CCC(=O)NC4=O)C5=O)cc3)CC[C@@H]12` (stereo partly drawn) [C23, N-(4-((7-((4-(2-(3-(2,6-dioxopiperidine))-isoindole-1,3-dione))amino)heptyl)oxy)phenyl)-3-oxo-4-aza-5α-androst-1-ene-17β-carboxamide]: the IC50 with 22Rv1 cells, in the experiment with PC-3 cells and with VCaP cells was > 1000 nM throughout.
On to `C[C@]12C=CC(=O)N[C@@H]1CC[C@@H]1[C@@H]2CC[C@]2(C)[C@@H](C(=O)Nc3cccc(OCCCNc4cccc5c4CN(C4CCC(=O)NC4=O)C5=O)c3)CC[C@@H]12` (stereo partly drawn) [C41, N-(3-((3-((4-(2-(3-(2,6-dioxopiperidine))-1-oxo-2,3-dihydro-1H-isoindol))amino)propyl)oxy)phenyl)-3-oxo-4-aza-5α-androst-1-ene-17β-carboxamide], for which the figures for the IC50 with 22Rv1 cells, in the experiment on PC-3 cells and in the experiment on VCaP cells were 0.1 to 10 nM, > 1000 nM and 0.1 to 10 nM, respectively.
